Nine compounds from US20060205637A1, “Fluoro-alkyl-cyclopeptide derivatives having anti-integrin activity” (Sigma-Tau Industrie Farmaceutiche Riunite S.p.A., priority 2002, published 2006) can be followed below.

Assay [1] concerns Human melanoma MeWo cells. The assay is described as follows: Cell adhesion assay on vitronectin, MeWo. It counts as cell-based. The settings on record: inhibition of cell adhesion to human vitronectin, 0.1 to 100 μM; read-out: MeWo IC50 ± SD. The protocol: Human melanoma MeWo cells from the American Type Culture Collection (ATCC) were kept in culture in complete Eagle Minimal Essential Medium (EMEM) containing 10% FCS, 2 mM L-glutamine and 50 μg/ml gentamicin.
(§1) 96-well plates were pretreated with 5 μg/ml of human vitronectin (Cal-biochem) for 12 hours at +4° C. BMEC or MeWo cells were detached with trypsin-EDTA, counted and plated on vitronectin substrate. The molecules were assayed at scalar concentrations ranging from 0.1 to 100 μM and co-incubated with the cells left to adhere. […] The adhereing cells were fixed with a 4% paraformaldehyde solution for 10 minutes at room temperature. The cells were then stained with a 1% toluidine blue solution for 10 minutes at room temperature. After staining, the cells were washed in double-distilled water, dried and solubilised with a 1% SDS solution. The cells were then quantified by means of absorbance reading on a Victor multilabel plate counter (Wal-lac) at 600 nm.
(§2) The evaluation parameter for the activity of the molecules was the value IC50±SD (μM).

Assay [2] has as its system bovine microvascular endothelial cells (BMEC).
Protocol: Microvascular endothelial cells from bovine adrenal glands (bovine microvascular endothelial cells—BMEC) were isolated from animals that had just been sacrificed and were stored in ice up to their arrival in the laboratory. In sterile conditions, the glands were washed in a solution of betadine for 5 minutes and then in 2 liters of sterile PBS. The glands were then cut with a disposable sterile lancet into fragments of approximately 2 mm and transferred to polystyrene Falcon tubes containing PBS (30 ml per gland). After centrifuging at 600 rpm in a centrifuge cooled to +4° C., the supernatant was decanted. The pellet was resuspended 1:2 with a 0.12% solution of collagenase A (Boehringer Mannheim) and incubated at 37° C. for 2 hours under stirring. After subsequent filtration on filters (Sigma), first of 200, and then 100 mesh, the supernatant was added to a solution of DMEM containing 15% FBS to inhibit the action of the collagenase A. The solution was centrifuged at 1000 rpm at room temperature and the precipitate resuspended in DMEM medium containing 20% FBS, 50 μg/ml of bovine brain extract (BBE), 50 μg/ml of heparin (Sigma), 0.5% v/v gentamicin (Sigma), and 1% v/v L-glutamine. The cells were seeded on Petri dishes gelatinised with 1% gelatin (Sigma porcine gelatin). At confluence, the cells were characterised with endothelial markers as Factor VIII.
The target in assay [3] is T1, integrin αvβ3 (Homo sapiens, UniProt P05106+P06756).
T1 construct: purchased Chemicon CC1020
T1 sequence (P06756 31-889 limits assumed): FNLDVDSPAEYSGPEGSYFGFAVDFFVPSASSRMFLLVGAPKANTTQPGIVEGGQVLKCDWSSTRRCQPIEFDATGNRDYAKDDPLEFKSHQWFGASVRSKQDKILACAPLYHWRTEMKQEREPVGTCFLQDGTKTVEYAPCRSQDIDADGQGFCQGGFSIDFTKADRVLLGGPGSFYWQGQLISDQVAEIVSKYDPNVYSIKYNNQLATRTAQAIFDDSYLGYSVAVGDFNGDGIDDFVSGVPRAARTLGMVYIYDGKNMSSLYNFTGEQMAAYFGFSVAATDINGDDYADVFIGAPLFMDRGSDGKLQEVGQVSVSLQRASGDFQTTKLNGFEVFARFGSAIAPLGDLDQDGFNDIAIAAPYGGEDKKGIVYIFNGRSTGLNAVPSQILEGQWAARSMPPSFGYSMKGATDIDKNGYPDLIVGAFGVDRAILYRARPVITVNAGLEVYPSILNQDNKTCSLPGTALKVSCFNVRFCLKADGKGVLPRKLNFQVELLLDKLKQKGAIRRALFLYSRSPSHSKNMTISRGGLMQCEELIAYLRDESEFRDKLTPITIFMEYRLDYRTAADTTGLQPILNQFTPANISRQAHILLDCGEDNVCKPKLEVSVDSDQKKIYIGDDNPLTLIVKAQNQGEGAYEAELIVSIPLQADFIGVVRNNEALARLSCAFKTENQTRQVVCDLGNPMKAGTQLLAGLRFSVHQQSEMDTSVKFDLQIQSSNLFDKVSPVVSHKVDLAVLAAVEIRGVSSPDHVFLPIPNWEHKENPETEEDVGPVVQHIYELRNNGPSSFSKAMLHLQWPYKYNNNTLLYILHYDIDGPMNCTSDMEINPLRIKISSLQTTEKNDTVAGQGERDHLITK
T1 sequence (P06756 891-1048 partner limits assumed): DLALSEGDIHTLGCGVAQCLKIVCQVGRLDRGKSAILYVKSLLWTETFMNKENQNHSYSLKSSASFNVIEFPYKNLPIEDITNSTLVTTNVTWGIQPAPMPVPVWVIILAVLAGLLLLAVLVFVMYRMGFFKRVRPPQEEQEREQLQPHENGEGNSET
T1 sequence (P05106 27-788): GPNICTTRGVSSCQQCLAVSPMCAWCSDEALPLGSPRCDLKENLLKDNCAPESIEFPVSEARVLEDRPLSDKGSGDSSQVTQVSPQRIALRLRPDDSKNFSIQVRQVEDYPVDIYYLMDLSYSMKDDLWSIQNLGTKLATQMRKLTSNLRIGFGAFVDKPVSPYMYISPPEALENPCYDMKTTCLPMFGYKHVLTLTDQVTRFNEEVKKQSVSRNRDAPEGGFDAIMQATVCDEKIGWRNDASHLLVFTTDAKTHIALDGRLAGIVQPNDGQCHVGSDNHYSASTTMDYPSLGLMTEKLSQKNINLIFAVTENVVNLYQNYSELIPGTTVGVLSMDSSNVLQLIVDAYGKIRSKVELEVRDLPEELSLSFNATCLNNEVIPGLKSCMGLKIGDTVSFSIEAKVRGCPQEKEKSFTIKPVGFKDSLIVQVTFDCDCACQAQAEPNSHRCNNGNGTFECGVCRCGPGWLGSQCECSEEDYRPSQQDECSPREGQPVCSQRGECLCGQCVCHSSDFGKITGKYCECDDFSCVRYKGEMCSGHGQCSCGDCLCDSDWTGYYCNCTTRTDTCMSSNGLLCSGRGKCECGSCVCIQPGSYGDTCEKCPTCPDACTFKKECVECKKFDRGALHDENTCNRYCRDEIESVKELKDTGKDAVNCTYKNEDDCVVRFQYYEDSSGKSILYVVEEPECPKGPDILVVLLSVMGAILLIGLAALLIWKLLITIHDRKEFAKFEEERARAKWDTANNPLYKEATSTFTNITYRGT
The assay is described as follows: Binding to integrin αvβ3 receptors ((125I) Echistatin displacement). The settings on record: for IC50: 0.05 nM (125I) Echistatin, 3-hour incubation, plate coated with 0.5 μg/ml integrin, read-out: αvβ3 IC50 ± SD. Here is the method: 96-well plates were subjected overnight to coating with 0.5 μg/ml of integrin αvβ3 (Chemicon, cat. CC1020). On the next day, the wells were washed and incubation was performed with 0.05 nM of (^125I) Echistatin (Amersham, cat. IM304) in the absence or presence of compounds according to the invention. After a 3-hour incubation and a series of washings, the integrin from each well bound to the radioactive substance was solubilised with NaOH 2N, and the radioactivity was then measured using a gamma counter. Non-specific binding, to be subtracted from all samples, was determined in the presence of Echistatin 1 μM.
(§3) The affinity of the compounds according to the present invention for vitronectin receptors was expressed as the IC50±SD value (nM) which is a parameter elaborated using “ALLFIT” software.

Assay [4] has as its target T2, integrin αvβ5 (Homo sapiens, UniProt P06756+P18084).
T2 construct: purchased Chemicon CC1022
The assay is described as follows: Binding to integrin αvβ5 receptors ((125I) Echistatin displacement). Conditions: for IC50: 0.05 nM (125I) Echistatin, plate coated with 1 μg/ml integrin, read-out: αvβ5 IC50 ± SD. The protocol: On the next day, the wells were washed and incubation was performed with 0.05 nM of(^125I) Echistatin (Amersham, cat. IM304) in the absence or presence of compounds according to the invention. The process then proceeded as described in the previous case.
as §3

The subject of assay [5] is SK-LMS-1 human leiomyosarcoma cells. Briefly: Cell adhesion assay on vitronectin, SK-LMS-1. Format: cell-based. Conditions: inhibition of cell adhesion to human vitronectin, 0.1 to 100 μM; read-out: SK-LMS1 IC50 ± SD. Here is the method: SK-LMS-1 human leiomyosarcoma cells (ATCC) were grown in EMEM supplemented with 10% FCS, 2 mM L-glutamine and 50 μg/ml gentamicin.
as §1, §2

Where two headings read alike, the source gives them in different places.

T2 sequence (P06756 31-889 limits assumed): as the sequence (P06756 31-889 limits assumed) above
T2 sequence (P06756 891-1048 partner limits assumed): as the sequence (P06756 891-1048 partner limits assumed) above
T2 sequence (P18084 24-799): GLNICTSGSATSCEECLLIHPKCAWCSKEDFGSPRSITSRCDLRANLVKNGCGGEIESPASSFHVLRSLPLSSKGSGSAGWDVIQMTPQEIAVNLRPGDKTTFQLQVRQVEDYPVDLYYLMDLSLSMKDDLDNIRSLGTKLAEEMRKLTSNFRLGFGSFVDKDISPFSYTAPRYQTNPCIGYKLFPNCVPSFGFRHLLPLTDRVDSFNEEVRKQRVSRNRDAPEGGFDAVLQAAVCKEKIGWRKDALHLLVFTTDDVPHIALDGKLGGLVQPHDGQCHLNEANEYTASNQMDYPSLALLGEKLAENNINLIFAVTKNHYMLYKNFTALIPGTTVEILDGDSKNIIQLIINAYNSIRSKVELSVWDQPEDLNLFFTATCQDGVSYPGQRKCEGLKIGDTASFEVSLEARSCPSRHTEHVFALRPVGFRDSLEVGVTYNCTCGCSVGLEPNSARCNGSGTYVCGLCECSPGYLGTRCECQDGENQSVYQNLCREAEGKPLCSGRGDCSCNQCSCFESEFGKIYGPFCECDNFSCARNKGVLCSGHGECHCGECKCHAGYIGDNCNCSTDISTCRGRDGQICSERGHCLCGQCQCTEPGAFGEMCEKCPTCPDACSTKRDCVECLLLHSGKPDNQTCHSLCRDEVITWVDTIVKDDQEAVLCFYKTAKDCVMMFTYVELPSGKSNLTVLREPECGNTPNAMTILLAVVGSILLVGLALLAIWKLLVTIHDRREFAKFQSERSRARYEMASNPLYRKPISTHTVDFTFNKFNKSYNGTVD

For the compound `N=C(N)NCCC[C@@H]1NC(=O)C(Cc2ccccc2)(C(F)(F)F)NC(=O)[C@@H](Cc2ccccc2)NC(=O)[C@H](CC(=O)O)NC(=O)CNC1=O` (single isomer, unassigned) [ST1930, C(Arg-Gly-Asp-D-Phe-(R or S)-Tfm-Phe)], the IC50 in assay [1] was determined as 6.9 ± 1.3 µM; in assay [2] it was 8.9 ± 0.4 µM.

As to `CC(C)[C@@H]1NC(=O)[C@@H](Cc2ccccc2)NC(=O)C(CC(=O)O)(C(F)(F)F)NC(=O)CNC(=O)[C@H](CCCNC(=N)N)NC1=O` (single isomer, unassigned) [ST2189, c(Arg-Gly-(R or S)-Tfm-Asp-D-Phe-Val)], the 50% inhibitory concentration (IC50) in assay [3] and in assay [4] was more than 10 µM throughout.

`CC(C)[C@@H]1NC(=O)[C@@H](Cc2ccccc2)NC(=O)C(CC(=O)O)(C(F)(F)F)NC(=O)CNC(=O)[C@H](CCCNC(=N)N)NC1=O` (single isomer, unassigned) [ST2190, c(Arg-Gly-(R or S)-Tfm-Asp-D-Phe-Val)]: the IC50 in assay [3] and in assay [4] was more than 10 µM in each case.

`CC(C)[C@@H]1NC(=O)C(Cc2ccccc2)(C(F)(F)F)NC(=O)[C@H](CC(=O)O)NC(=O)CNC(=O)[C@H](CCCNC(=N)N)NC1=O` (single isomer, unassigned) [ST2191, c(Arg-Gly-Asp-(R o S)-Tfm-Phe-Val)]: the IC50 in assay [3] came to 0.237 ± 0.064 µM; in assay [1], 21.9 ± 2.5 µM; in assay [2], 18.8 ± 4.4 µM; in assay [4], 0.01 ± 0.0019 µM.

Consider `CC(C)[C@@H]1NC(=O)C(Cc2ccccc2)(C(F)(F)F)NC(=O)[C@H](CC(=O)O)NC(=O)CNC(=O)[C@H](CCCNC(=N)N)NC1=O` (single isomer, unassigned) [ST2192, c(Arg-Gly-Asp-(R o S)-Tfm-Phe-Val)], for which the IC50 in assay [3] was 1.02 ± 0.348 µM; in assay [2], more than 100 µM; in assay [4], 0.0727 ± 0.0038 µM.

In the case of `CC(C)C1(C(F)(F)F)NC(=O)[C@@H](Cc2ccccc2)NC(=O)[C@H](CC(=O)O)NC(=O)CNC(=O)[C@H](CCCNC(=N)N)NC1=O` (single isomer, unassigned) [ST2409, c(Arg-Gly-Asp-D-Phe-(R or S)-Tfm-Val)], the IC50 in assay [2] was 12.5 ± 1.5 µM; in assay [5], 15.9 ± 1.6 µM.

For the compound `CC(C)C1(C(F)(F)F)NC(=O)[C@@H](Cc2ccccc2)NC(=O)[C@H](CC(=O)O)NC(=O)CNC(=O)[C@H](CCCNC(=N)N)NC1=O` (single isomer, unassigned) [ST2410, c(Arg-Gly-Asp-D-Phe-(R or S)-Tfm-Val)], the IC50 in assay [2] was 77.6 ± 7.2 µM; in assay [5], more than 100 µM.

On to `CN1C(=O)[C@@H](Cc2ccccc2)NC(=O)[C@H](CC(=O)O)NC(=O)CNC(=O)[C@H](CCCNC(=N)N)NC(=O)C1(Cc1ccccc1)C(F)(F)F` (single isomer, unassigned) [ST2552, c(Arg-Gly-Asp-D-Phe-(R or S)—N-Me-Tfm-Phe)], for which the “binding affinity for vitronectine receptor αvβ3 (in words)” value in assay [3] is “high binding affinity”. Further, the IC50 in assay [1] is 0.33 ± 0.05 µM; in assay [2], more than 100 µM. In addition, the “binding affinity for vitronectine receptor αvβ5 (in words)” value in assay [4] is on record as “high binding affinity”.

Take “c(Arg-Gly-Asp-D-Phe-(R,S)-Dfm-Phe) [ST1932]”: the IC50 came to 0.332 ± 0.101 µM in assay [3]; 13.9 ± 4.3 µM in assay [1]; 14.2 ± 1 µM in assay [2] (read-out: BMEC IC50 ± SD, inhibition of cell adhesion to human vitronectin, 0.1 to 100 μM); 0.0055 ± 0.0008 µM in assay [4].

For orientation: IC50 means the concentration at which inhibition is half-maximal.
